Several values for one entry are separate records, joined by “and”; a condition that tells them apart may be missing. Equal values may be shown once.
Columns and labels:
female BALB/C mice = experiment: Live imaging in mice: protein expression of Fluc-mRNA delivered by LNP formulations; type: in vivo; details: for average radiation intensity, times that of ALC-0315: comparator ALC-0315; for average radiation intensity, times that of HHMA: comparator HHMA; for average radiation intensity, times that of SM-102: comparator SM-102; for expression of mRNA in mice, times that of YK-302: comparator YK-302; for expression amount, times that of YK-309: comparator YK-309; for expression amount, times that of YK-313: comparator YK-313; for expression amount, times that of YK-321: comparator YK-321; for average radiation intensity, times that of compound 21: comparator compound 21; for average radiation intensity, times that of compound 23: comparator compound 23
Method in brief: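 Female BALB/C mice (4-6 weeks, 17-19 g) received LNP-formulated Fluc-mRNA […] intramuscularly. At 6 h, 24 h, 48 h and 7 d, luciferase substrate given intraperitoneally, and after 5 min average radiance measured by IVIS whole-body imaging.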

293T cells [1] = experiment: Cell survival rate determination (CCK-8); type: cell-based
Method in brief: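 Readout was CCK-8 absorbance (450 nm, 1 h) taken after a 24 h exposure of overnight-adhered 293T cells (10,000 per well, 96-well) to Lipofectamine 3000 or to LNPs carrying Fluc-mRNA, lipid molar ratio 49:10:39.5:1.5 cationic/neutral/structured/polymer-conjugated.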

293T cells [2] = experiment: Fluorescent detection of Fluc-mRNA (cell transfection efficiency of LNP formulations); type: cell-based
Method in brief: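 Transfection read-out: IVIS imaging after […], 24 h after adding LNPs (lipid molar ratio 49:10:39.5:1.5 cationic/neutral/structured/polymer-lipid; […] Fluc-mRNA). Adherent 293T cells were seeded overnight at 10,000 per well beforehand.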

liver = experiment: Distribution of liposomes in mice: protein expression in the liver (live imaging); type: in vivo; details: at 6 h
Procedure: The LNP formulation containing […] Fluc-mRNA was injected intramuscularly into female BALB/C mice aged 4 to 6 weeks old and weighed 17 to 19 g, and the mice were intraperitoneally injected with fluorescent imaging substrate at specific time points after administration (6 h, 24 h, 48 h and 7 d), where the mice were free to move for 5 minutes, and then the average radiation intensity (corresponding to fluorescence expression intensity) of the protein expression of the mRNA carried by the LNP in the mice was detected by the IVIS Spectrum small animal live imaging device.
At 24 h, the LNP formulations prepared from all compounds had been metabolized in the liver and had no protein expression.

[3] = Particle size and polydispersity index (PDI) of lipid nanoparticles by dynamic light scattering; type: physicochemical; details: LNP formulation prepared from the cationic lipid, 25° C.
Procedure: The particle size and polydispersity index (PDI) were determined by dynamic light scattering using Malvern laser particle size analyzer.
10 μL of the liposome solution was weighed, diluted to 1 mL with RNase-free deionized water, and added to the sample pool. Each sample was measured in triplicate. The measurement conditions were: […] scattering angle, and 25° C.

CCCCCCCCC(CCCCCCCC)COC(=O)CCCCCN(CCCCCC(=O)OCC(CCCCCCCC)CCCCCCCC)C[C@H](O)CN(C)CCO [YK-305, (R)-Bis(2-octyldecyl)-6,6′-((2-hydroxy-3-((2-hydroxyethyl)(methyl)amino)propyl)azanediyl)dihexanoate]
average radiation intensity, times that of ALC-0315 (female BALB/C mice; 6 h): 10.70 times
average radiation intensity, times that of HHMA (female BALB/C mice; 6 h): 14.19 times
average radiation intensity, times that of SM-102 (female BALB/C mice; 6 h): 13.18 times
expression of mRNA in mice, times that of YK-302 (female BALB/C mice; 6 h): 633.70 times
expression amount, times that of YK-309 (female BALB/C mice; 6 h): 140.67 times
expression amount, times that of YK-313 (female BALB/C mice; 6 h): 20.89 times
expression amount, times that of YK-321 (female BALB/C mice; 6 h): 17.92 times
average radiation intensity, times that of compound 21 (female BALB/C mice; 6 h): 15.14 times
average radiation intensity, times that of compound 23 (female BALB/C mice; 6 h): 15.68 times
average radiation intensity (female BALB/C mice; 6 h after intramuscular injection): 9239340
average radiation intensity, times that of ALC-0315 (female BALB/C mice; 24 h): 14.82 times
average radiation intensity, times that of HHMA (female BALB/C mice; 24 h): 23.54 times
average radiation intensity, times that of SM-102 (female BALB/C mice; 24 h): 23.44 times
expression of mRNA in mice, times that of YK-302 (female BALB/C mice; 24 h): 713.70 times
expression amount, times that of YK-309 (female BALB/C mice; 24 h): 167.86 times
expression amount, times that of YK-313 (female BALB/C mice; 24 h): 27.04 times
expression amount, times that of YK-321 (female BALB/C mice; 24 h): 27.89 times
average radiation intensity, times that of compound 21 (female BALB/C mice; 24 h): 25.70 times
average radiation intensity, times that of compound 23 (female BALB/C mice; 24 h): 27.01 times
average radiation intensity (female BALB/C mice; 24 h after intramuscular injection): 2823400
average radiation intensity, times that of ALC-0315 (female BALB/C mice; 48 h): 26.32 times
average radiation intensity, times that of HHMA (female BALB/C mice; 48 h): 32.18 times
average radiation intensity, times that of SM-102 (female BALB/C mice; 48 h): 32.19 times
expression amount, times that of YK-309 (female BALB/C mice; 48 h): 159.93 times and ~160 times
expression amount, times that of YK-313 (female BALB/C mice; 48 h): 40.99 times
expression amount, times that of YK-321 (female BALB/C mice; 48 h): 28.65 times
average radiation intensity, times that of compound 21 (female BALB/C mice; 48 h): 33.82 times
average radiation intensity, times that of compound 23 (female BALB/C mice; 48 h): 31.63 times
average radiation intensity (female BALB/C mice; 48 h after intramuscular injection): 1047720
average radiation intensity, times that of ALC-0315 (female BALB/C mice; 7 d): 18.02 times
average radiation intensity, times that of HHMA (female BALB/C mice; 7 d): 21.63 times
average radiation intensity, times that of SM-102 (female BALB/C mice; 7 d): 19.18 times
expression amount, times that of YK-309 (female BALB/C mice; 7 d): 101.13 times and ~100 times
expression amount, times that of YK-313 (female BALB/C mice; 7 d): 39.26 times
expression amount, times that of YK-321 (female BALB/C mice; 7 d): 19.29 times
average radiation intensity, times that of compound 21 (female BALB/C mice; 7 d): 19.71 times
average radiation intensity, times that of compound 23 (female BALB/C mice; 7 d): 20.35 times
average radiation intensity (female BALB/C mice; 7 d after intramuscular injection): 127015
Cell survival rate (%) (293T cells [1]; LNP formulation of Fluc-mRNA, 24 hours, CCK-8): 82.18%
cell survival rate higher than ALC-0315 (293T cells [1]; difference of survival rates, comparator ALC-0315): 31.15% and ~30%
cell survival rate higher than HHMA (293T cells [1]; difference of survival rates, comparator HHMA): 15.71% and ~15%
cell survival rate higher than Lipofectamine 3000 (293T cells [1]; difference of survival rates, comparator Lipofectamine 3000): 57.17%
cell survival rate higher than SM-102 (293T cells [1]; difference of survival rates, comparator SM-102): 12.73% and ~12%
cell survival rate higher than YK-301 (293T cells [1]; difference of survival rates, comparator YK-301): 29.22%
cell survival rate higher than YK-302 (293T cells [1]; difference of survival rates, comparator YK-302): 65.75% and ~65% and ~50%
cell survival rate higher than YK-303 (293T cells [1]; difference of survival rates, comparator YK-303): 18.86%
cell survival rate higher than YK-304 (293T cells [1]; difference of survival rates, comparator YK-304): 48.02%
cell survival rate higher than YK-306 (293T cells [1]; difference of survival rates, comparator YK-306): 39.99%
cell survival rate higher than YK-307 (293T cells [1]; difference of survival rates, comparator YK-307): 21.04%
cell survival rate higher than YK-308 (293T cells [1]; difference of survival rates, comparator YK-308): 11.19%
cell survival rate higher than YK-309 (293T cells [1]; difference of survival rates, comparator YK-309): 50.57%
cell survival rate higher than YK-311 (293T cells [1]; difference of survival rates, comparator YK-311): 12.12%
cell survival rate higher than YK-313 (293T cells [1]; difference of survival rates, comparator YK-313): 13.25%
cell survival rate higher than YK-314 (293T cells [1]; difference of survival rates, comparator YK-314): 14.30%
cell survival rate higher than YK-315 (293T cells [1]; difference of survival rates, comparator YK-315): 10.90%
cell survival rate higher than YK-316 (293T cells [1]; difference of survival rates, comparator YK-316): 11.65%
cell survival rate higher than YK-317 (293T cells [1]; difference of survival rates, comparator YK-317): 23.00% and ~20%
cell survival rate higher than YK-320 (293T cells [1]; difference of survival rates, comparator YK-320): 11.110%
cell survival rate higher than YK-321 (293T cells [1]; difference of survival rates, comparator YK-321): 9.84%
cell survival rate higher than compound 21 (293T cells [1]; difference of survival rates, comparator compound 21): 11.97%
cell survival rate higher than compound 23 (293T cells [1]; difference of survival rates, comparator compound 23): 10.68%
Relative light unit (RLU) (293T cells [2]; LNP formulation of Fluc-mRNA, 96-well plate, 24 hours): 27408734 RLU
Multiples (YK-305) (293T cells [2]; RLU of YK-305 / RLU of the lipid of the line): 1.00
Multiples (YK-310) (293T cells [2]; RLU of YK-310 / RLU of the lipid of the line): 0.94
Multiples (YK-312) (293T cells [2]; RLU of YK-312 / RLU of the lipid of the line): 0.74
Multiples (YK-318) (293T cells [2]; RLU of YK-318 / RLU of the lipid of the line, Tables 5, 7, 11): 0.41
Multiples (YK-319) (293T cells [2]; RLU of YK-319 / RLU of the lipid of the line, Tables 5, 7, 11): 0.89
Ratio relative to SM-102 (293T cells [2]; RLU of the lipid / RLU of SM-102, times that of SM-102): 17.09
cell transfection efficiency, times that of ALC-0315 (293T cells [2]; comparator ALC-0315): 13.48 times
cell transfection efficiency, times that of HHMA (293T cells [2]; comparator HHMA): 13.66 times
cell transfection efficiency, times that of Lipofectamine 3000 (293T cells [2]; comparator Lipofectamine 3000): 23.12 times
cell transfection efficiency, times that of YK-009 (293T cells [2]; comparator YK-009): 5.35 times
cell transfection efficiency, times that of YK-301 (293T cells [2]; comparator YK-301): 32.53 times
cell transfection efficiency, times that of YK-303 (293T cells [2]; comparator YK-303): 43.76 times
cell transfection efficiency, times that of YK-306 (293T cells [2]; comparator YK-306): 12.47 times
cell transfection efficiency, times that of YK-307 (293T cells [2]; comparator YK-307): 6.01 times
cell transfection efficiency, times that of YK-308 (293T cells [2]; comparator YK-308): 5.44 times
cell transfection efficiency, times that of YK-309 (293T cells [2]; comparator YK-309): ~210 times and 218.62 times and ~200 times
cell transfection efficiency, times that of YK-311 (293T cells [2]; comparator YK-311): 13.96 times
cell transfection efficiency, times that of YK-313 (293T cells [2]; comparator YK-313): 31.63 times
cell transfection efficiency, times that of YK-314 (293T cells [2]; comparator YK-314): 50.07 times
cell transfection efficiency, times that of YK-315 (293T cells [2]; comparator YK-315): 17.27 times
cell transfection efficiency, times that of YK-316 (293T cells [2]; comparator YK-316): 5.70 times
cell transfection efficiency, times that of YK-317 (293T cells [2]; comparator YK-317): 7.60 times
cell transfection efficiency, times that of YK-320 (293T cells [2]; comparator YK-320): 10.14 times
cell transfection efficiency, times that of YK-321 (293T cells [2]; comparator YK-321): 19.53 times and ~20 times
cell transfection efficiency, times that of compound 21 (293T cells [2]; comparator compound 21): 19.14 times
cell transfection efficiency, times that of compound 23 (293T cells [2]; comparator compound 23): 20.21 times
expression amount in the liver compared with ALC-0315 and SM-102 (liver): reduced
protein expression in the liver (liver; intramuscular injection): had protein expression in the liver
PDI (%) [3]: 10.7%
Particle size (nm) [3]: 191 nm

— patent US20260007613A1, “LONG-ACTING LOW-TOXICITY NOVEL CATIONIC LIPID COMPOUNDS AND COMPOSITION THEREOF” (BEIJING YOUCAREKECHUANG PHARMACEUTICAL TECHNOLOGY CO., LTD., priority 2023, published 2026)
